Results from patent US20260191998A1, “INDOLE PHTHALOCYANINE COMPOUND, PREPARATION METHOD THEREFOR, AND USE THEREOF IN TUMOR DIAGNOSIS IMAGING” (JIANGSU YAHONG MEDITECH CO., LTD., priority 2022, published 2026).
Where a name gives a salt, the structure may show the parent alone.

Assay: UV-VIS absorption spectra (optical property test)
Format: physicochemical
Conditions: 10 μM, DMSO solution; for Absorbance × 10^4: at maximum absorption peak
Protocol: The UV-VIS absorption spectra of the compounds (10 μM, DMSO solution) were detected using Shimadzu UV2600 spectrophotometer, and the maximum absorption peak and absorbance of each compound were obtained.

| Absorption peak [nm] | Compound | Absorbance × 10^4 |
| --- | --- | --- |
| – | 2-((E)-2-((E)-2-bromo-3-(2-((E)-3,3-dimethyl-1-(6-oxo-6-phenoxyhexyl)indolin-2-ylidene)ethenyl)cyclohex-1-en-1-yl)ethenyl)-1,3,3-trimethyl-3H-indol-1-ium 2,2,2-trifluoroacetate [Example 58] | 2.21 |
| – | 5-carboxy-2-((E)-2-((E)-2-chloro-3-(2-((E)-3,3-dimethyl-1-(2-(3-oxo-3-phenoxypropoxy)ethyl)indolin-2-ylidene)ethenyl)cyclohex-1-en-1-yl)ethenyl)-1-ethyl-3,3-dimethyl-3H-indol-1-ium 2,2,2-trifluoroacetate [Example 123] | 1.3 |
| – | 5-carboxy-2-((E)-2-((E)-2-chloro-3-(2-((E)-3,3-dimethyl-1-(6-oxo-6-phenoxyhexyl)indolin-2-ylidene)ethenyl)cyclohex-1-en-1-yl)ethenyl)-1,3,3-trimethyl-3H-indol-1-ium 2,2,2-trifluoroacetate [Example 120] | 1.73 |
| – | 5-carboxy-2-((E)-2-((E)-2-chloro-3-(2-((E)-3,3-dimethyl-1-(6-oxo-6-phenoxyhexyl)indolin-2-ylidene)ethenyl)cyclohex-1-en-1-yl)ethenyl)-1-ethyl-3,3-dimethyl-3H-indol-1-ium 2,2,2-trifluoroacetate [Example 118] | 1.73 |
| 859.5 | CC[N+]1=C(/C=C/C2=C(Cl)C(=C/C=C3/N(CCCCCC(=O)O)c4ccc5ccccc5c4C3(C)C)/CC2)C(C)(C)c2c1ccc1ccccc21 [Example 1B, 2-((E)-2-((E)-3-((E)-2-(3-(5-carboxypentyl)-1,1-dimethyl-1,3-dihydro-2H-benzo[e]indol-2-ylidene)ethenyl)-2-chlorocyclopent-1-en-1-yl)ethenyl)-3-ethyl-1,1-dimethyl-1H-benzo[e]indol-3-ium Chloride] | 2.03 |
| 796.5 | CC1(C)C(/C=C/C2=C(Cl)C(=C/C=C3/N(CCCCCC(=O)Oc4ccccc4)c4ccccc4C3(C)C)/CCC2)=[N+](CCCCCC(=O)Oc2ccccc2)c2ccccc21 [Example 5, 2-((E)-2-((E)-2-chloro-3-(2-((E)-3,3-dimethyl-1-(6-oxo-6-phenoxyhexyl)indolin-2-ylidene)ethenyl)cyclohex-1-en-1-yl)ethenyl)-3,3-dimethyl-1-(6-oxo-6-phenoxyhexyl)-3H-indol-1-ium Chloride] | 1.17 |
| 796.5 | CC1(C)C(/C=C/C2=C(Cl)C(=C/C=C3/N(CCCCCC(=O)Oc4ccccc4)c4ccccc4C3(C)C)/CCC2)=[N+](CCCCCC(=O)O)c2ccccc21 [Example 11] | 2.27 |
| 632 | CCN1/C(=C/C=C2\CCCC(/C=C/C3=[N+](CC)c4ccccc4C3(C)C)=C2NCCCCCC(=O)O)C(C)(C)c2ccccc21 [Example 13, 2-((E)-2-((E)-2-((5-carboxypentyl)amino)-3-(2-((E)-1-ethyl-3,3-dimethylindolin-2-ylidene)ethenyl)cyclohex-1-en-1-yl)ethenyl)-1-ethyl-3,3-dimethyl-3H-indol-1-ium Formate] | 0.68 |
| 766 | CC1(C)C(/C=C/C2=C(Cl)C(=C/C=C3/N(CCC(=O)O)c4ccccc4C3(C)C)/C[N+](C)(C)C2)=[N+](CCC(=O)O)c2ccccc21 [Example 17, 1-(2-carboxyethyl)-2-((E)-2-((E)-5-(2-((E)-1-(2-carboxyethyl)-3,3-dimethylindolin-2-ylidene)ethenyl)-4-chloro-1,1-dimethyl-1,2,5,6-tetrahydropyridin-1-ium-3-yl)ethenyl)-3,3-dimethyl-3H-indol-1-ium Ditrifluoroacetate] | 0.88 |
| 764.5 | CCN1/C(=C/C=C2\C[N+](C)(C)CC(/C=C/C3=[N+](CC)c4ccccc4C3(C)C)=C2Cl)C(C)(C)c2ccccc21 [Example 18, 2-((E)-2-((E)-4-chloro-5-(2-((E)-1-ethyl-3,3-dimethylindolin-2-ylidene)ethenyl)-1,1-dimethyl-1,2,5,6-tetrahydropyridin-1-ium-3-yl)ethenyl)-1-ethyl-3,3-dimethyl-3H-indol-1-ium Ditrifluoroacetate] | 2.12 |
| 782 | CC[N+]1=C(/C=C/C2=C(Oc3ccc(S(=O)(=O)O)cc3)C(=C/C=C3/N(CCCCCC(=O)Oc4ccccc4)c4ccccc4C3(C)C)/CCC2)C(C)(C)c2ccccc21 [Example 20, 2-((E)-2-((E)-3-(2-((E)-3,3-dimethyl-1-(6-oxo-6-phenoxyhexyl)indol-2-methylene)ethenyl)-2-(4-sulfophenoxy)cyclohex-1-en-1-yl)ethenyl)-1-ethyl-3,3-dimethyl-3H-indol-1-ium Formate] | 2.60 |
| 821 | CC[N+]1=C(/C=C/C2=C(Cl)C(=C/C=C3/N(CCOCCC(=O)Oc4ccccc4)c4ccccc4C3(C)C)/CC2)C(C)(C)c2ccccc21 [Example 21, 2-((E)-2-((E)-2-chloro-3-(2-((E)-3,3-dimethyl-1-(2-(3-oxo-3-phenoxypropoxy)ethyl)indol-2-methylene)ethylidene)cyclopent-1-en-1-yl)ethenyl)-1-ethyl-3,3-dimethyl-3H-indol-1-ium Trifluoroacetate] | 2.466 |
| 827 | CC[N+]1=C(/C=C/C2=C(Cl)C(=C/C=C3/N(CCCCCC(=O)Oc4ccccc4)c4ccccc4C3(C)C)/CC2)C(C)(C)c2cc(S(=O)(=O)O)ccc21 [Example 22, 2-((E)-2-((E)-2-chloro-3-(2-((E)-3,3-dimethyl-1-(6-oxo-6-phenoxyhexyl)indolin-2-ylidene)ethenyl)cyclopent-1-en-1-yl)ethenyl)-1-ethyl-3,3-dimethyl-5-sulfonyl-3H-indol-1-ium Chloride] | 1.97 |
| 797.5 | CC1(C)C(/C=C/C2=C(Cl)C(=C/C=C3/N(CCCCCC(=O)Nc4ccccc4)c4ccccc4C3(C)C)/CCC2)=[N+](CCCCS(=O)(=O)O)c2ccccc21 [Example 26, 2-((E)-2-((E)-2-chloro-3-(2-((E)-3,3-dimethyl-1l-(6-oxo-6-(phenylamino)hexyl)indolin-2-ylidene)ethenyl)cyclohex-1-en-1-yl)ethenyl)-3,3-dimethyl-1-(4-sulfonylbutyl)-3H-indo-1-ium Formate] | 2.44 |

| Compound | Absorption peak [nm] | Absorbance × 10^4 |
| --- | --- | --- |
| 2-((E)-2-((E)-2-chloro-3-(2-((E)-3,3-dimethyl-1-(2-((5-oxo-5-phenoxypentyl)oxy)ethyl) indolin-2-ylidene)ethenyl)cyclohex-1-en-1-yl)ethenyl)-3,3-dimethyl-1-(2-((5-oxo-5-phenoxypentyl)oxy)ethyl)-3H-indol-1-ium [Example 37B] | 801 | 1.563 |
| 2-((E)-2-((E)-2-chloro-3-(2-((E)-3,3-dimethyl-1-(6-oxo-6-(phenylamino)hexyl)indolin-2-ylidene)ethenyl)cyclohex-1-en-1-yl)ethenyl)-3,3-dimethyl-1-(6-oxo-6-(phenylamino) hexyl)-3H-indol-1-ium 2,2,2-trifluoroacetate [Example 27B] | 797 | 2.117 |
| CC[N+]1=C(/C=C/C2=C(Cl)C(=C/C=C3/N(CCCCCC(=O)Oc4ccccc4)c4ccc5ccccc5c4C3(C)C)/CC2)C(C)(C)c2c1ccc1ccccc21 [Example 1A, 2-((E)-2-((E)-2-chloro-3-((E)-2-(1,1-dimethyl-3-(6-oxo-6-phenoxyhexyl)-1,3-dihydro-2H-benzo[e]indol-2-ylidene)ethenyl)cyclopent-1-en-1-yl)ethenyl)-3-ethyl-1,1-dimethyl-1H-benzo[e]indol-3-ium Chloride] | 860 | 2.82 |
| CC[N+]1=C(/C=C/C2=C(Cl)C(=C/C=C3/N(Cc4ccc(C(=O)Oc5ccccc5)cc4)c4ccc5ccccc5c4C3(C)C)/CCC2)C(C)(C)c2c1ccc1ccccc21 [Example 3] | 835 | 1.88 |
| CC[N+]1=C(/C=C/C2=C(Oc3ccccc3)C(=C/C=C3/N(CCCCCC(=O)Oc4ccccc4)c4ccccc4C3(C)C)/CCC2)C(C)(C)c2ccccc21 [Example 12, 2-((E)-2-((E)-3-(2-((E)-3,3-dimethyl-1-(6-oxo-6-phenoxyhexyl)indolin-2-ylidene)ethenyl)-2-phenoxycyclohex-1-en-1-yl)ethenyl)-1-ethyl-3,3-dimethyl-3H-indol-1-ium Chloride] | 781.5 | 2.07 |
| CC1(C)C(/C=C/C2=C(Cl)C(=C/C=C3/N(CCCCCC(=O)Oc4ccccc4)c4ccccc4C3(C)C)/C[N+](C)(C)C2)=[N+](CCCCCC(=O)Oc2ccccc2)c2ccccc21 [Example 14, 2-((E)-2-((E)-4-chloro-5-(2-((E)-3,3-dimethyl-1-(6-oxo-6-phenoxyhexyl)indolin-2-ylidene)ethenyl)-1,1-dimethyl-1,2,5,6-tetrahydropyridin-1-ium-3-yl)ethenyl)-3,3-dimethyl-1-(6-oxo-6-phenoxyhexyl)-3H-indol-1-ium Dichloride] | 767.5 | 1.71 |
| CC[N+]1=C(/C=C/C2=C(Cl)C(=C/C=C3/N(CCCCCC(=O)Oc4ccccc4)c4ccccc4C3(C)C)/C[N+](C)(C)C2)C(C)(C)c2ccccc21 [Example 16, 2-((E)-2-((E)-4-chloro-5-(2-((E)-3,3-dimethyl-1-(6-oxo-6-phenoxyhexyl)indolin-2-ylidene)ethenyl)-1,1-dimethyl-1,2,5,6-tetrahydropyridin-1-ium-3-yl)ethenyl)-1-ethyl-3,3-dimethyl-3H-indol-1-ium Dichloride] | 766 | 1.71 |
| CC1(C)C(/C=C/C2=C(Cl)C(=C/C=C3/N(CCCCCC(=O)O)c4ccccc4C3(C)C)/C[N+](C)(C)C2)=[N+](CCCCCC(=O)O)c2ccccc21 [Example 25] | 767.5 | 2.265 |
